Laboratory results published in patent CN103301132A, “川芎嗪仲、叔醇类衍生物及其在制药中的应用” (Nanjing University of Chinese Medicine, priority 2013, dated 2013).
Where two headings read alike, the source gives them in different places. Blank lines part the entries; values can stand above or below the molecule they belong to.

How the values were obtained:
[1] = Further study of other liguzinediol derivatives (activity, arrhythmia); conditions: no details given
[2] = target: T1, SERCA2a in cardiomyocytes [心肌细胞内的SERCA2a靶点] (Homo sapiens, UniProt P16615); conditions: mechanism study; cited from earlier work
T1 construct: 心肌细胞内的SERCA2a靶点; endogenous in cells
T1 sequence (P16615 1-997 isoform P16615-2): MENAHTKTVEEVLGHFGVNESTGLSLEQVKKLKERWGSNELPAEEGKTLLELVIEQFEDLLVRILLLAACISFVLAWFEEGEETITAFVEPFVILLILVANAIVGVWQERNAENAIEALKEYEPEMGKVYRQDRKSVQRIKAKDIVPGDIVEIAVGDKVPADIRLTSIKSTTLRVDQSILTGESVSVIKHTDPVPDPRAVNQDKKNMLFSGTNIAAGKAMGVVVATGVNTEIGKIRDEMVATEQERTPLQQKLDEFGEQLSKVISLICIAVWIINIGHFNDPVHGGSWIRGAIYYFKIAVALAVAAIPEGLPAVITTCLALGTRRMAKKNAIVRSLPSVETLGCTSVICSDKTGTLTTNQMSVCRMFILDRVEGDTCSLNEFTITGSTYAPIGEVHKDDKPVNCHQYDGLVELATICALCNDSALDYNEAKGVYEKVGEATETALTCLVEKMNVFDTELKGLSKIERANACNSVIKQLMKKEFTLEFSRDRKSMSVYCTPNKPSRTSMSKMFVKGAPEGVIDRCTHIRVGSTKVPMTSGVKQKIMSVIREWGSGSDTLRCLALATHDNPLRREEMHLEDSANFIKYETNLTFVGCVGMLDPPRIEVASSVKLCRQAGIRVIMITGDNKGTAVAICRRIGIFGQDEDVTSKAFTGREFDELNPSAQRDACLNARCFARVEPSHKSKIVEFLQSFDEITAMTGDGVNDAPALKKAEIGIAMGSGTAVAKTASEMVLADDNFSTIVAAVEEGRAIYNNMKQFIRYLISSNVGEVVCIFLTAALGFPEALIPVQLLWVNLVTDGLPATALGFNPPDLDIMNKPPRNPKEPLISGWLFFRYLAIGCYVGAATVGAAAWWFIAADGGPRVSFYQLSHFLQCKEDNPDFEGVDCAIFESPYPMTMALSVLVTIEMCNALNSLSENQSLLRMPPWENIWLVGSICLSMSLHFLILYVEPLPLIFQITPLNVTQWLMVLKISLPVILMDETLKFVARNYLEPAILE

[3] = system: isolated rat heart [Isolated Rat Heart]; conditions: pharmacological studies; cited from earlier work
[4] = cited from earlier work
[5] = Pharmacokinetics in Sprague-Dawley rats (plasma, HPLC); assay type: in vivo; conditions: SD rat; for AUC / half-life: gavage and tail vein dosing
[6] = 10 mg/kg, low dose (doses 10, 20, 40 mg·kg-1), route not given
[7] = 20 mg/kg, middle dose (doses 10, 20, 40 mg·kg-1), route not given
[8] = high dose (doses 10, 20, 40 mg·kg-1), route not given

Structure (SMILES): CCOCc1nc(C)c(COCC)nc1C [2,5-二乙氧甲基-3,6-二甲基吡嗪]
arrhythmia [1]: 会导致心律失常

Structure (SMILES): COCc1nc(C)c(COC)nc1C [2,5-二甲氧甲基-3,6-二甲基吡嗪]
arrhythmia [1]: 会导致心律失常

Structure (SMILES): Cc1nc(C(=O)O)c(C)nc1C(=O)O [3,6-二甲基-2,5-吡嗪二甲酸]
activity [1]: 明显下降

Structure (SMILES): Cc1nc(CO)c(C)nc1CO [liguzinediol, 2,5-二羟甲基-3,6-二甲基吡嗪]
mechanism of positive inotropic effect [2]: 通过作用于心肌细胞内的SERCA2a靶点而发挥正性肌力作用
arrhythmia side effect [3]: 没有心律失常副作用
positive inotropic effect [3]: 明显的正性肌力作用
half-life ([4]; in animals): 1.6 h
metabolic rate ([4]; in animals): 相对较快
glucuronide conjugate formation ([4]; in vivo): 很快地形成了葡萄糖醛酸结合物而排出体外
oxidation of hydroxymethyl and side-chain methyl ([4]; in vivo): 容易被氧化成极性和水溶性较大的化合物而排出体外

AUC [5, 6]: 34000 ng·h/mL
half-life [5, 6]: 3.7 h
AUC [5, 7]: 70000 ng·h/mL
half-life [5, 7]: 3.6 h
AUC [5, 8]: 135000 ng·h/mL
half-life [5, 8]: 3.5 h
clearance ([5]; low, middle and high doses, route not given): ~5 mL/min/kg
bioavailability ([5]; po, gavage and tail vein injection, 10, 20, 40 mg·kg-1): 90%
Structure (SMILES): CCC(O)c1nc(C)c(C(O)CC)nc1C (stereo not drawn) [化合物2, 2,5-二-(1-羟基丙基)-3,6-二甲基吡嗪]
